According to US12114658B2, “Compounds having a nitrogen-containing unsaturated six-membered ring and agricultural and horticultural fungicides containing the same as active ingredients” (MITSUI CHEMICALS CROP & LIFE SOLUTIONS, INC., priority 2018, dated 2024):

How the values were obtained:
Magnaporthe grisea = experiment: whole plant or invertebrate; format: in vivo; conditions: Pyricularia oryzae, in Oryza sativa, read-out: control value
Puccinia recondita = experiment: Test Example E: brown rust on wheat; format: in vivo; conditions: 250 ppm spray (2.5 ml/pot) before inoculation, wheat variety Norin 61, investigated 7 to 10 days after inoculation
[1] = system: Colletotrichum orbiculare; experiment: Test Example H: anthracnose on cucumber; conditions: in Cucumis sativus, read-out: control value
Protocol: (§1) Disease development in Test Examples described below was evaluated in increments of 0.05 by setting 0 as no incidence of disease and 3 as disease development in a plant of untreated group. Further, control values were calculated using the following equation based on disease development.
(§2) <Control Value> Control value=100{1−(n/3)} • n=Disease development of each treated group
Seeds of a test plant (cucumber variety: Sagami Hanjiro) were planted and cultivated until the first leaf appeared. In the test, the inventive compounds were dissolved into a dimethyl sulfoxide-methanol mixture solution (volume ratio: 9/1), and the resultant solutions were diluted with well water to a concentration of 250 ppm. The thus-obtained dilutions were sprayed to the test plant (2.5 ml/pot). After the dilutions dried, a conidial suspension (2-4×10^5 conidia/ml) of Colletotrichum orbiculare was inoculated to the plant by spraying. After the inoculation, the plant was kept in a mist chamber at room temperature of 20 to 23° C. for about 24 hours to promote the onset of disease. The disease development was investigated 6 to 10 days after the inoculation, and the effectiveness of the dilutions was evaluated.

Alternaia brassicicola = experiment: Test Example C: Alternaria sooty spot on cabbage; conditions: Brassica oleracea, read-out: control value
Protocol: as §1, §2
Seeds of a test plant (cabbage variety: Shikidori) were planted and cultivated until the cotyledons extended. In the test, the inventive compounds were dissolved into a dimethyl sulfoxide-methanol mixture solution (volume ratio: 9/1), and the resultant solutions were diluted with well water to a concentration of 250 ppm. The thus-obtained dilutions were sprayed to the test plant (2.5 ml/pot). After the dilutions dried, a conidial suspension (4-8×10^5 conidia/ml) of Alternaia brassicicola was inoculated to the plant by spraying. After the inoculation, the plant was kept in a mist chamber at room temperature of 20 to 23° C. for about 48 hours to promote the onset of disease. The disease development was investigated 2 to 3 days after the inoculation, and the effectiveness of the dilutions was evaluated.

Measured: pest or weed control at 250 ppm

CCn1c(-c2ccccc2)c(-n2cnc(Cl)c2Cl)cc(Cl)c1=O [IM-003, 3-chloro-5-(4,5-dichloro-1H-imidazol-1-yl)-1-ethyl-6-phenylpyridine-2(1H)-one]
> 50%: all assays above

CCn1c(-c2ccc(O)cc2)c(-n2ncc(C)c2Cl)cc(Cl)c1=O [PY-041, 3-chloro-5-(5-chloro-4-methyl-1H-pyrazol-1-yl)-1-ethyl-6-(4-hydroxyphenyl)pyridine-2(1H)-one]
> 50%: Magnaporthe grisea | Puccinia recondita | Alternaia brassicicola

CCn1c(-c2ccc(OC)cc2)c(-n2cc(C)cn2)ccc1=O [PY-036, 1-ethyl-6-(4-methoxyphenyl)-5-(4-methyl-1H-pyrazol-1-yl)pyridine-2(1H)-one]
> 50%: [1] | Alternaia brassicicola

CCn1c(-c2ccc(F)cc2)c(-n2nccc2C(F)(F)F)cc(Cl)c1=O [PY-090, 3-chloro-1-ethyl-6-(4-fluorophenyl)-5-(5-(trifluoromethyl)-1H-pyrazol-1-yl)pyridine-2(1H)-one]
> 50%: all assays above

CCn1c(-c2ccc(OC)cc2)c(-n2ncc(C)c2Cl)cc(Cl)c1=O [PY-018, 3-chloro-5-(5-chloro-4-methyl-1H-pyrazol-1-yl)-1-ethyl-6-(4-methoxyphenyl)pyridine-2(1H)-one]
> 50%: all assays above

CCn1c(-c2ccccc2)c(-n2cnc(Cl)c2Cl)ccc1=O [IM-001, 5-(4,5-dichloro-1H-imidazol-1-yl)-1-ethyl-6-phenylpyridine-2(1H)-one]
> 50%: all assays above

COn1c(-c2ccc(F)cc2)c(-n2cc(C)cn2)ccc1=O [PY-374, 6-(4-fluorophenyl)-1-methoxy-5-(4-methyl-1H-pyrazol-1-yl)pyridin-2(1H)-one]
> 50%: Alternaia brassicicola

CCn1c(-c2ccc(OCC(F)F)cc2)c(-n2ncc(C)c2Cl)cc(Cl)c1=O [PY-046, 3-chloro-5-(5-chloro-4-methyl-1H-pyrazol-1-yl)-6-(4-(2,2-difluoroethoxy)phenyl)-1-eth ylpyridine-2(1H)-one]
> 50%: Magnaporthe grisea | Puccinia recondita | Alternaia brassicicola

COn1c(-c2ccc(F)cc2)c(-n2ncc(C)c2Cl)cc(Br)c1=O [PY-382, 3-bromo-5-(5-chloro-4-methyl-1H-pyrazol-1-yl)-6-(4-fluorophenyl)-1-methoxypyridin-2(1H)-one]
> 50%: all assays above

COn1c(-c2ccc(F)cc2)c(-n2cc(C)cn2)cc(Br)c1=O [PY-381, 3-bromo-6-(4-fluorophenyl)-1-methoxy-5-(4-methyl-1H-pyrazol-1-yl)pyridin-2 (1H)-one]
> 50%: [1] | Alternaia brassicicola

COc1ccc(-c2c(-n3ncc(C)c3Cl)cc(Cl)c(=O)n2CC(F)F)cc1 [PY-032, 3-chloro-5-(5-chloro-4-methyl-1H-pyrazol-1-yl)-1-(2,2-difluoroethyl)-6-(4-methoxyphenyl)pyridine-2(1H)-one]
> 50%: all assays above

CCn1c(-c2ccc(F)cc2)c(-n2nccc2Cl)cc(Cl)c1=O [PY-104, 3-chloro-5-(5-chloro-1H-pyrazol-1-yl)-1-ethyl-6-(4-fluorophenyl)pyridine-2(1H)-one]
> 50%: all assays above

COc1ccc(-c2c(-n3cc(C)cn3)ccc(=O)n2CC(F)F)cc1 [PY-031, 1-(2,2-difluoroethyl)-6-(4-methoxyphenyl)-5-(4-methyl-1H-pyrazol-1-yl)pyridine-2(1H)-one]
> 50%: Alternaia brassicicola
